The numbers were not newly measured in article PMC9610285 (Pharmaceutics, 2022), which cites them from elsewhere.

This series relates to MAO-B. Also noted: method as in earlier work. As to conditions: main metabolite of rasagiline; cited from earlier work.

In the case of `NC1CCc2ccccc21` (stereo not shown) [S1-1-aminoindane], the MAO-B inhibition entry is “not a MAO-B inhibitor”.
